This is an account of results in publication PMC11125197, “Evaluation of Drug Blood-Brain-Barrier Permeability Using a Microfluidic Chip” (Pharmaceutics, 2024).

Data set [1] can be described thus: in vitro. The settings on record: human. As for the experimental part:
(§1) The design and construction of the BBB-on-a-chip were as reported previously. The chip (Emulate, #OCK-12) was composed of two parallel microchannels (top; 1 × 1 mm, bottom; 1 × 0.2 mm) separated by a porous polydimethysiloxane (PDMS) membrane (diameter, 7 μm; spacing, 40 μm; thickness, 50 μm, resulting in 2% porosity over a surface area of 0.171 cm^2 separating the two channels). The membrane was activated according to the manufacturer’s instructions and coated with the mixture of laminin (1 mg/mL), collagen IV (1 mg/mL), and fibronectin (1 mg/mL) in DPBS (Figure 1). Coated chips were incubated at 4 °C overnight, then at 37 °C for 1 h before seeding the cells. hBMEC cells (9 × 10^5 cells/mL) were 20 µL seeded into the bottom channel of the chip. The chip was immediately inverted and incubated at 37 °C for 4 h. After 4 h, hBMECs were prepared as previously described and re-injected into the bottom channel to mimic the vascular structure, as shown in right panel of Figure 2A.
(§2) Ten drugs (Table 1) were selected for BBB permeability analysis (CAF, CBZ, DES, LPM, CET, VIN, LP, NZD, DPZ, and SIM). […] We performed transport experiments for the basolateral-to-apical side and the apical-to-basolateral side.
(§3) Fifteen microliters of blood-and-brain medium was mixed with 135 μL internal standard (IS) solution (5 ng/mL disopyramide in acetonitrile). The mixture was vortexed briefly and centrifuged at 15,000 rpm for 5 min at 4 °C. […] Mobile phase A was 0.1% formic acid in water and mobile phase B was 0.1% formic acid in acetonitrile. Chromatographic separation was performed on a Luna C18 column (100 × 2 mm (i.d.) 3 μm, Phenomenex) with a Security Guard C18 guard column (4 mm × 20 mm (i.d.), Phenomenex) by gradient elution at a flow rate of 0.3 mL/min (Table 2). The mass spectrometer was operated in positive ion mode for all compounds, and the carryover was checked by the injection of a blank in between samples.
(§4) (1) Ctn,channel=Atn−1, channel+C(tn−tn−1),channel·tn−tn−1·channel flow rate/tn·channel flow rate, where Achannel is the drug amount of the channel; tn is time point; C(tn−tn−1),channel is the concentration of drug pooled from tn to tn−1; channel flow rate, fluid flow rate in channel;
(§5) (2) Cchannel=Css, channel · t/CT50, channel+t, where CT50, channel is the time at a half steady state concentration of channel; t, time.
(§6) Kp , the partition coefficient, in the BBB-on-a-chip was calculated by dividing the calculated Css, brain by the Css, blood value of the drug passing through the bottom channel, as shown in Equation (3). (3) Kp=Css, brain/Css, blood
(§7) J represents the rate at which the amount of compound moves from the bottom channel to the top channel, which was calculated by determining the slope of the time-versus-amount curve at 0 h to the point at which a steady state (90% of Tss ) was reached. Papp can be calculated by dividing J by the surface area of the membrane (SA) separating the two channels and the initial concentration in the bottom channel. (4) Papp=J/MW/SA·C0,blood ,J=dAbrain/dt, where MW is molecular weight of each drug.

In data set [2] the test system is human BBB-on-a-chip (hBMEC, HBVP, NHA). The data set is described as follows: in vitro. As for the experimental part:
as §1, §2, §3, §4, §5, §6, §7

The test system is the same in data set [3]. Briefly: BBB-on-a-chip permeability, basolateral to apical (brain to blood channel), LC-MS/MS. It is filed as in vitro ADME. Conditions: 1 μM in top channel. From the text:
Css, channel , the concentration in the channel at the steady state, was estimated using a simple Emax model Equation (2) with time (h) on the x-axis and concentration (ng/mL) on the y-axis.

The mark [4] stands for this setting: 1 μM dosed, simple Emax model fit.
The mark [5] stands for this setting: 1 μM dosed, simple Emax model fit, sampling 1, 4, 9, 24 h.
Setting [6] is: time to reach predicted 90% Css.

Consider `Cn1c(=O)c2c(ncn2C)n(C)c1=O` [Caffeine, caffeine], for which, in data set [1], the Kp was 0.435 and the Papp – broadly, a coefficient for how fast a substance crosses the barrier – is 30 ×10⁻⁶ cm/s. For the same molecule, the “Plateau reached in brain channel during the observed time” value (shortened to “Plateau reached”) in data set [2] is “reached plateau”. In data set [2] (human), the “CT50,blood (time at half steady state concentration of blood channel)” value (“CT50,blood” for short) is 2.91 h, the “CT50,brain (time at half steady state concentration of brain channel)” value (“CT50,brain” for short) is 2.39 h, the “Cplateau,brain (concentration at plateau time of brain channel)” value (“Cplateau,brain” for short) stood at 44.8098 ng/mL and the “Css,blood (steady state concentration of blood channel)” value (shortened to “Css,blood”) is 114.47 ng/mL. Moreover, in data set [2] (human), the “Css,brain (steady state concentration of brain channel)” value (shortened to “Css,brain”) was determined as 49.79 ng/mL and the “tplateau,brain (plateau time for brain channel)” value (from here on “tplateau,brain”) came to 21.52 h.
In data set [1], `NC(=O)N1c2ccccc2C=Cc2ccccc21` [Carbamazepine, carbamazepine] gave a Kp at 1 μM of 0.282 and a Papp at 24 h, 1 μM of 15.8 ×10⁻⁶ cm/s. Further, the “CT50,brain” value in data set [2] (setting [4]) stood at 3.27 h. The “CT50,blood” value in data set [2] (setting [5]) worked out at 1.98 h. Further, in data set [2] (BBB-on-a-chip, 1 μM), the “BBB permeability in words (apical to basolateral)” value is recorded as “high permeabilities”. In addition, in data set [2] (human), the “Cplateau,brain” value is listed as 28.6749 ng/mL, the “Css,blood” value amounted to 112.88 ng/mL and the “Css,brain” value was determined as 31.86 ng/mL. Moreover, the “tplateau,brain” value in data set [2] (setting [6]) is 29.41 h.
Molecule `CNCCCN1c2ccccc2CCc2ccccc21` [Desipramine, desipramine] gave a Papp at 24 h, 1 μM in data set [1] of 32.5 ×10⁻⁶ cm/s. In addition, in data set [2] (setting [4]), the “CT50,brain” value is given as 34.47 h, the “Css,blood” value came out at 234.83 ng/mL and the “Css,brain” value is given as 73.93 ng/mL. In data set [2] (setting [5]), the “CT50,blood” value was 57.44 h. Further, in data set [2] (predicted 90% Css), the “Cplateau,brain” value is given as 66.5383 ng/mL. For the same molecule, the “tplateau,brain” value in data set [2] (setting [6]) was 310.22 h.
For `Nc1nc(OC(c2ccc(-c3cccc(F)c3)cc2)C(F)(F)F)cc(-c2ccc(C[C@H](N)C(=O)O)cc2)n1` (some centres unmarked) [LP533401], in data set [2], the “BBB permeability in words (apical to basolateral)” value is “low permeability” and the “Papp (apparent permeability)” value is 2.1693 10^−6cm/s. Further, in data set [2] (setting [4]), the “CT50,brain” value stood at 0.16 h, the “Css,blood” value is reported as 573.66 ng/mL and the “Css,brain” value amounted to 9.77 ng/mL. For the same molecule, the “CT50,blood” value in data set [2] (setting [5]) was found to be 6.80 h. Further, the “Kp (Brain/Blood), partition coefficient” value in data set [2] (human) is reported as 0.0170. Besides, in data set [2] (observation up to 24 h), the “Plateau reached” value was “reached plateau”. In addition, the “Cplateau,brain” value in data set [2] (predicted 90% Css) is 8.7886 ng/mL. For the same molecule, the “tplateau,brain” value in data set [2] (setting [6]) is recorded as 1.42 h.
In data set [1], `CN(C)C(=O)C(CCN1CCC(O)(c2ccc(Cl)cc2)CC1)(c1ccccc1)c1ccccc1` [Loperamide, loperamide] showed a Kp of 0.0552 and an apparent permeability (Papp) of 9.26 ×10⁻⁶ cm/s. The “CT50,brain” value in data set [2] (setting [4]) stood at 20.04 h. The “CT50,blood” value in data set [2] (setting [5]) came out at 58.46 h. Besides, in data set [2] (human), the “Cplateau,brain” value worked out at 33.9736 ng/mL, the “Css,blood” value was 684.09 ng/mL, the “Css,brain” value was determined as 37.75 ng/mL and the “tplateau,brain” value amounted to 180.32 h. Moreover, in data set [3], the “BBB permeability in words (basolateral to apical)” value is given as “high permeability”.
As to `CCc1nn(CCCN2CCN(c3cccc(Cl)c3)CC2)c(=O)n1CCOc1ccccc1` [Nefazodone, nefazodone], in data set [1], the Kp at 1 μM was found to be 0.0953 and the Papp at 24 h, 1 μM was 3.84 ×10⁻⁶ cm/s. Also, the “CT50,brain” value in data set [2] (setting [4]) is 37.79 h. For the same molecule, the “CT50,blood” value in data set [2] (setting [5]) was determined as 9.01 h. In addition, in data set [2] (human), the “Cplateau,brain” value worked out at 13.8908 ng/mL, the “Css,blood” value amounted to 161.89 ng/mL and the “Css,brain” value was 15.43 ng/mL. Moreover, the “tplateau,brain” value in data set [2] (setting [6]) is reported as 340.10 h.
For the molecule `CC[C@]1(O)C[C@H]2CN(CCc3c([nH]c4ccccc34)[C@@](C(=O)OC)(c3cc4c(cc3OC)N(C=O)[C@H]3[C@@](O)(C(=O)OC)[C@H](OC(C)=O)[C@]5(CC)C=CCN6CC[C@]43[C@@H]65)C2)C1` [Vincristine, vincristine], in data set [1], the Kp came to 0.0821. Besides, the “CT50,blood” value in data set [2] (setting [5]) is listed as 2.99 h. For the same molecule, in data set [2] (human), the “Css,blood” value is 626.20 ng/mL. In data set [2] (observation up to 24 h), the “Plateau reached” value is listed as “reached plateau”.
